Experimental data reported in patent US7803378B2, “Antigen imitating extracellular areas of membrane proteins of type III produced from intracellular pathogenic micro-organisms, derived conformational antibodies and the use thereof” (priority 2003, dated 2010).

Assays:
[1] = tested on: extracellular domains of the LMP1 protein; assay: Immunogenic potency of LMP1 antigens: serum antibodies by ELISA after immunization; type: in vivo, EBV; settings: mice immunized with LMP1-derived peptide coupled to KLH or lipid
Description: (§1) The LMP1-derived peptides containing only one exogenous cystein (SEQ ID Nos 10, 11, 12, 15, 16) were individually coupled to activated KLH (Imject maleimide-activated KLH®, Perbio) according to the supplier's protocol. Mice (4 animals per group) were injected subcutaneously in the flank, with an emulsion of peptide (50 μg in 0.1 ml H20) and of complete Freund's adjuvant (0.1 ml). On days 21, 42 and 62 following the first injection (D0), the animals are given a boost injection, by the same route, with the same amount of antigen but in incomplete Freund's adjuvant. […]
(§2) Blood samples are taken, by retro-orbital puncture, from the immunized mice, and the sera are then recovered and frozen at −20° C. in 20-μl fractions. […] The reaction is stopped by adding 4N sulfuric acid, and the absorption at 492 nm is measured using an automatic microplate reader (Dynatech).
Antibodies directed against the extracellular domains of the EBV LMP1 protein were prepared by immunization of mice with the peptides SEQ ID Nos 10 and 11 coupled to KLH, or else with the peptide SEQ ID No. 13 coupled to cholesterol, as described in example 1. The kinetics of appearance of the serum antibodies directed against the extracellular domains of the LMP1 protein were analyzed by ELISA, as described in example 1.

[2] = tested on: extracellular domains of the LMP2A protein; assay: Immunogenic potency of the LMP2A antigens in mice and rats (ELISA); type: in vivo, EBV; settings: comparison of LMP2A peptides SEQ ID Nos 15, 16, 17
Description: as §1, §2
Antibodies directed against the extracellular domains of the LMP2A proteins were prepared by immunization of batches of 4 BALB/c mice or of batches of 3 LOU/M rats with the peptides SEQ ID Nos 15, 16 and 17 coupled to activated KLH as described in example 1. The response in terms of antibodies directed against the extracellular domains of the LMP2A protein was analyzed by ELISA, as described in example 1.

Row | Substance | Immunogenic Potency [1] | humoral response [2]
1 | SEQ ID No: 14: LMP1-(ED1 + ED2 + ED3) with linking residues between domains (MSDWTGGALCLWNLHGQALCLYLQQNWWT; Epstein Barr Virus) | +(IgM) | 
2 | TWRIEDPPFNSLCVDAVLQLSPL [SEQ ID No. 16] |  | best humoral response
